Assay results taken from publication PMC9516332 (Frontiers in Oncology, 2022).
Read-outs that look alike come from different tables or passages of the source.

Legend:
[1] = molecular target: panel of 255 wild-type kinases (Homo sapiens, UniProt Q13177); experiment: Kinase panel profiling at 1 µmol/L (MSA or IMAP), percentage inhibition; assay type: biochemical; conditions: PAK2; 1 µmol/L single concentration; read-out: %-inhibition, PAK2
[2] = molecular target: panel of 255 wild-type kinases (Homo sapiens, UniProt P50613); experiment: as above; assay type: biochemical; conditions: CDK7/CycH/MAT1 kinase assay; 1 µmol/L single concentration; read-out: %-inhibition CDK7/CycH/MAT1
[3] = molecular target: panel of 255 wild-type kinases (Homo sapiens, UniProt Q00526); experiment: as above; assay type: biochemical; conditions: CDK3/CycE1 kinase assay; 1 µmol/L single concentration; read-out: %-inhibition CDK3/CycE1
[4] = molecular target: panel of 255 wild-type kinases (Homo sapiens, UniProt P49760); experiment: as above; assay type: biochemical; conditions: kinase CLK2; 1 µmol/L single concentration; read-out: %-inhibition at 1 µmol/L, CLK2
[5] = molecular target: panel of 255 wild-type kinases (Homo sapiens, UniProt P45983); experiment: as above; assay type: biochemical; conditions: kinase JNK1; 1 µmol/L single concentration; read-out: %-inhibition at 1 µmol/L, JNK1
[6] = molecular target: panel of 255 wild-type kinases (Homo sapiens, UniProt Q9HBH9); experiment: as above; assay type: biochemical; conditions: MNK2; 1 µmol/L single concentration; read-out: %-inhibition, MNK2
[7] = molecular target: panel of 255 wild-type kinases (Homo sapiens, UniProt O75582); experiment: as above; assay type: biochemical; conditions: MSK1; 1 µmol/L single concentration; read-out: %-inhibition, MSK1
[8] = molecular target: panel of 255 wild-type kinases (Homo sapiens, UniProt P22607); experiment: as above; assay type: biochemical; conditions: read-out: %-inhibition at 1 µmol/L, FGFR3
[9] = molecular target: panel of 255 wild-type kinases (Homo sapiens, UniProt Q96RG2); experiment: as above; assay type: biochemical; conditions: PASK; 1 µmol/L single concentration; read-out: %-inhibition, PASK
[10] = test system: AP-1060 (ETV6-NTRK3); experiment: Cell viability assay
[11] = test system: 134 cancer cell lines; experiment: Cell viability assay (ATPlite, 72 hours), IC50 on cancer cell line panel

O=C(Nc1cnn2ccc(N3CCC[C@@H]3c3cc(F)ccc3F)nc12)N1CC[C@H](O)C1 [larotrectinib]
-3.55%: inhibition at 1 µM [5]
-8.51%: inhibition at 1 µM [6]
1.79%: inhibition at 1 µM [3]
-10%: inhibition at 1 µM [1]
> 31.6 µM: IC50 ([11]; HEC-6, read-out: IC50 in cell proliferation assay, HEC-6 cell line (EGFR p.A289V)) | IC50 ([11]; Homo sapiens, 769-P, read-out: IC50 in cell proliferation assay, cell line 769-P) | IC50 ([11]; Homo sapiens, 786-0, read-out: IC50 in cell proliferation assay, cell line 786-O) | IC50 ([11]; Homo sapiens, A 172, read-out: IC50 in cell proliferation assay, cell line A-172) | IC50 ([11]; Homo sapiens, A204, read-out: IC50 in cell proliferation assay, cell line A-204) | IC50 ([11]; Homo sapiens, A498, read-out: IC50 in cell proliferation assay, cell line A-498) | IC50 ([11]; Homo sapiens, A549, read-out: IC50 in cell proliferation assay, cell line A-549) | IC50 ([11]; Homo sapiens, A704, read-out: IC50 in cell proliferation assay, cell line A-704) | IC50 ([11]; Homo sapiens, A-375, read-out: IC50 in cell proliferation assay, cell line A-375 (BRAF p.V600E)) | IC50 ([11]; Homo sapiens, A-427, read-out: IC50 in cell proliferation assay, cell line A-427) | IC50 ([11]; Homo sapiens, ACHN, read-out: IC50 in cell proliferation assay, cell line ACHN) | IC50 ([11]; Homo sapiens, AN3-CA, read-out: IC50 in cell proliferation assay, cell line AN3-CA (FGFR2 p.N549K)) | IC50 ([11]; Homo sapiens, ASPC1, read-out: IC50 in cell proliferation assay, cell line AsPC-1) | IC50 ([11]; Homo sapiens, AU565, read-out: IC50 in cell proliferation assay, cell line AU565 (ERBB2 amplification)) | IC50 ([11]; Homo sapiens, BT-20, read-out: IC50 in cell proliferation assay, cell line BT-20) | IC50 ([11]; Homo sapiens, BT-474, read-out: IC50 in cell proliferation assay, cell line BT-474 (ERBB2 amplification)) | IC50 ([11]; Homo sapiens, BT-549, read-out: IC50 in cell proliferation assay, cell line BT-549) | IC50 ([11]; Homo sapiens, BXPC-3, read-out: IC50 in cell proliferation assay, cell line BxPC-3) | IC50 ([11]; Homo sapiens, C-33-A, read-out: IC50 in cell proliferation assay, cell line C-33 A) | IC50 ([11]; Homo sapiens, CAL-27, read-out: IC50 in cell proliferation assay, cell line CAL-27) | IC50 ([11]; Homo sapiens, CCF-STTG1, read-out: IC50 in cell proliferation assay, cell line CCF-STTG1) | IC50 ([11]; Homo sapiens, CCRF-CEM, read-out: IC50 in cell proliferation assay, cell line CCRF-CEM) | IC50 ([11]; Homo sapiens, COLO 205, read-out: IC50 in cell proliferation assay, cell line COLO 205 (BRAF p.V600E)) | IC50 ([11]; Homo sapiens, COLO-829, read-out: IC50 in cell proliferation assay, cell line COLO 829 (BRAF p.V600E)) | IC50 ([11]; Homo sapiens, DLD-1, read-out: IC50 in cell proliferation assay, cell line DLD-1) | IC50 ([11]; Homo sapiens, DU-4475, read-out: IC50 in cell proliferation assay, cell line DU4475 (BRAF p.V600E)) | IC50 ([11]; Homo sapiens, Daoy, read-out: IC50 in cell proliferation assay, cell line Daoy) | IC50 ([11]; Homo sapiens, DoTc2-4510, read-out: IC50 in cell proliferation assay, cell line DoTc2 4510) | IC50 ([11]; Homo sapiens, EOL1, read-out: IC50 in cell proliferation assay, cell line EoL-1 (FIP1L1-PDGFRA)) | IC50 ([11]; Homo sapiens, FaDu, read-out: IC50 in cell proliferation assay, cell line FaDu) | IC50 ([11]; Homo sapiens, G-361, read-out: IC50 in cell proliferation assay, cell line G-361 (BRAF p.V600E)) | IC50 ([11]; Homo sapiens, HCC827, read-out: IC50 in cell proliferation assay, cell line HCC827 (EGFR exon19del)) | IC50 ([11]; Homo sapiens, HCC4006, read-out: IC50 in cell proliferation assay, cell line HCC4006 (EGFR exon19del)) | IC50 ([11]; Homo sapiens, HCT-15, read-out: IC50 in cell proliferation assay, cell line HCT 15) | IC50 ([11]; Homo sapiens, HCT-116, read-out: IC50 in cell proliferation assay, cell line HCT 116) | IC50 ([11]; Homo sapiens, HEC-1, read-out: IC50 in cell proliferation assay, HEC-1 cell line) | IC50 ([11]; Homo sapiens, HEC-1B, read-out: IC50 in cell proliferation assay, HEC-1-B cell line (EGFR p.A864V)) | IC50 ([11]; Homo sapiens, HL-60, read-out: IC50 in cell proliferation assay, HL-60 cell line) | IC50 ([11]; Homo sapiens, HT, read-out: IC50 in cell proliferation assay, HT cell line) | IC50 ([11]; Homo sapiens, HT-1080, read-out: IC50 in cell proliferation assay, HT-1080 cell line) | IC50 ([11]; Homo sapiens, Hs746T, read-out: IC50 in cell proliferation assay, Hs 746.T cell line (MET exon14skip + amplification)) | IC50 ([11]; Homo sapiens, Hs-578T, read-out: IC50 in cell proliferation assay, Hs 578T cell line) | IC50 ([11]; Homo sapiens, HuTu80, read-out: IC50 in cell proliferation assay, HuTu 80 cell line) | IC50 ([11]; Homo sapiens, J82, read-out: IC50 in cell proliferation assay, J82 cell line) | IC50 ([11]; Homo sapiens, Jurkat E6.1, read-out: IC50 in cell proliferation assay, Jurkat E6.1 cell line) | IC50 ([11]; Homo sapiens, K562, read-out: IC50 in cell proliferation assay, K-562 cell line) | IC50 ([11]; Homo sapiens, KATO III, read-out: IC50 in cell proliferation assay, KATO III cell line (FGFR2 amplification)) | IC50 ([11]; Homo sapiens, KG-1, read-out: IC50 in cell proliferation assay, KG-1 cell line (FGFR1OP2-FGFR1)) | IC50 ([11]; Homo sapiens, KLE, read-out: IC50 in cell proliferation assay, KLE cell line) | IC50 ([11]; Homo sapiens, KMS-11, read-out: IC50 in cell proliferation assay, KMS-11 cell line (FGFR3 p.Y373C)) | IC50 ([11]; Homo sapiens, KU812, read-out: IC50 in cell proliferation assay, Ku812 cell line) | IC50 ([11]; Homo sapiens, Kasumi 1, read-out: IC50 in cell proliferation assay, Kasumi-1 cell line (KIT p.N822K)) | IC50 ([11]; Homo sapiens, LC-2-ad, read-out: IC50 in cell proliferation assay, LC-2/ad cell line (CCDC6-RET)) | IC50 ([11]; Homo sapiens, LNCaP-Clone-FGC, read-out: IC50 in cell proliferation assay, LNCaP clone FGC cell line) | IC50 ([11]; Homo sapiens, LS174T, read-out: IC50 in cell proliferation assay, LS174T cell line) | IC50 ([11]; Homo sapiens, LS-411N, read-out: IC50 in cell proliferation assay, LS411N cell line (BRAF p.V600E)) | IC50 ([11]; Homo sapiens, LoVo, read-out: IC50 in cell proliferation assay, LoVo cell line) | IC50 ([11]; Homo sapiens, MCF7, read-out: IC50 in cell proliferation assay, MCF-7 cell line) | IC50 ([11]; Homo sapiens, MDA-MB-231, read-out: IC50 in cell proliferation assay, MDA-MB-231 cell line) | IC50 ([11]; Homo sapiens, MDA-MB-453, read-out: IC50 in cell proliferation assay, MDA-MB-453 cell line)
-8%: inhibition at 1 µM [2]
around four-fold more potent: potency in AP-1060 compared to entrectinib ([10]; cell viability)
9%: inhibition at 1 µM [4]
0.745%: inhibition at 1 µM [9]
0.009 µM: IC50 ([10]; read-out: IC50 in cell proliferation assay)
-0.0628%: inhibition at 1 µM [7]
1.36%: inhibition at 1 µM [8]
